Where a name gives a salt, the structure may show the parent alone. Read-outs that look alike come from different tables or passages of the source.
Key:
[1] = biological target: T1, GST fusion human ERK2 protein (Homo sapiens, UniProt P28482); assay: ERK2 enzyme assay (1); format: biochemical; conditions: read-out: ERK2 enzyme inhibitory activity (1)
T1 construct: purchased Carna Biosciences, Inc; host or cells: E. coli expression system
Description: In an ERK2 enzyme assay, GLUTATHIONE S-TRANSFERASE (GST) FUSION HUMAN ERK2 PROTEIN (manufactured by Carna Biosciences, Inc.), which was produced by using an E. coli expression system, was used.
12 μL of a reaction liquid (2.5 nmol/L ERK2, 100 mmol/L Hepes, 10 mmol/L MgCl2, 1.5 mmol/L DTT, 0.003% Brij35, pH 7.5) including ERK2 protein and a test compound having a predetermined concentration was allowed to stand at room temperature for 15 minutes. Then, 3 μL of a mixture liquid of FL-PEPTIDE8 (5-FAM-IPTSPITTTYFFFKKK-COOH) (manufactured by Caliper Life Sciences), which is substrate peptide, and ATP (manufactured by Sigma-Aldrich Co. LLC.) was added thereto such that the final concentrations thereof became 4.25 μmol/L and 43.1 μmol/L, respectively, and an enzyme reaction was performed by allowing to stand at 25° C. for 120 minutes.
After the reaction, the enzyme reaction was stopped by adding 30 μL of a reaction stopper liquid (100 mmol/L HEPES, 11.2 mmol/L EDTA, 5.6% Brij35, pH 7.5) including a 0.5% COATING REAGENT 8 (trade name, manufactured by Perkin Elmer Inc.) thereto. Then, phosphorylated peptide and non-phosphorylated peptide were separated using LABCHIP EZ READER (trade name, manufactured by Caliper Life Sciences), and the porportion of the phosphorylated peptide was quantified.
The inhibitory activities of the compounds were evaluated using IC50 (50% inhibitory concentration). The IC50 was calculated using XLFIT (trade name, manufactured by ID Business Solutions).

human PI3Kα protein = biological target: T2, human PI3Kα protein (Homo sapiens, UniProt P42336); assay: PI3Kα enzyme assay (ADP-Glo); format: biochemical; conditions: read-out: PI3Kα enzyme inhibitory activity
T2 construct: purchased Carna Biosciences, Inc; host or cells: baculovirus expression system
T2 sequence (P42336 whole entry): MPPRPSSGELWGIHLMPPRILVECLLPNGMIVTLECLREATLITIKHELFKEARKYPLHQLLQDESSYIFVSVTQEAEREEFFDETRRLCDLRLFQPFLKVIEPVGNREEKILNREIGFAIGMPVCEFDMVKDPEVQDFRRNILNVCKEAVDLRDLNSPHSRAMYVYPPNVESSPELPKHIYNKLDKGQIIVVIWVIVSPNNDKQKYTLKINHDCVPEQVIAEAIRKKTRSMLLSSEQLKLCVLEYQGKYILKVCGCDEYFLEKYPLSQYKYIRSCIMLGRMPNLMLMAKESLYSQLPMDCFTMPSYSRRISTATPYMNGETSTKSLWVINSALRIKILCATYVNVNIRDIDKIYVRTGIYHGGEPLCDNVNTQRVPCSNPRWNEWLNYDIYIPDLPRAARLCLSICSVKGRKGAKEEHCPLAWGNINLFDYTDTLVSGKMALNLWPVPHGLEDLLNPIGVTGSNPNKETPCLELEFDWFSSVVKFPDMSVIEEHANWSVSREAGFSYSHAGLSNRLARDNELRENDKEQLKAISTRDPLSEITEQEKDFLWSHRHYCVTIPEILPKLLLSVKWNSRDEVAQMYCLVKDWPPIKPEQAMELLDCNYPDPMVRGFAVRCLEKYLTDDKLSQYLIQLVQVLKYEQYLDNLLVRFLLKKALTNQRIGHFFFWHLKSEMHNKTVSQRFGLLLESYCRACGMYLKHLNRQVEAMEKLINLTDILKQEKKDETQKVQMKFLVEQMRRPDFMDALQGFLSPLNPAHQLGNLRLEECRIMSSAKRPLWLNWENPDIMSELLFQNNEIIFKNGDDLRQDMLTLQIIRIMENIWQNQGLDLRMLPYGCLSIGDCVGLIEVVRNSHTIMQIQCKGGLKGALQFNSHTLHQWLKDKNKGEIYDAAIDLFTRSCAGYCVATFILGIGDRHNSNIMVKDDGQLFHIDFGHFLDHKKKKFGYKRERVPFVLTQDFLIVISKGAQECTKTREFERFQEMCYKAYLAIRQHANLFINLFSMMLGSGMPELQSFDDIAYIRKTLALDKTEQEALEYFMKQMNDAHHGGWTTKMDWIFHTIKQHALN
T2 sequence (P27986 whole entry partner): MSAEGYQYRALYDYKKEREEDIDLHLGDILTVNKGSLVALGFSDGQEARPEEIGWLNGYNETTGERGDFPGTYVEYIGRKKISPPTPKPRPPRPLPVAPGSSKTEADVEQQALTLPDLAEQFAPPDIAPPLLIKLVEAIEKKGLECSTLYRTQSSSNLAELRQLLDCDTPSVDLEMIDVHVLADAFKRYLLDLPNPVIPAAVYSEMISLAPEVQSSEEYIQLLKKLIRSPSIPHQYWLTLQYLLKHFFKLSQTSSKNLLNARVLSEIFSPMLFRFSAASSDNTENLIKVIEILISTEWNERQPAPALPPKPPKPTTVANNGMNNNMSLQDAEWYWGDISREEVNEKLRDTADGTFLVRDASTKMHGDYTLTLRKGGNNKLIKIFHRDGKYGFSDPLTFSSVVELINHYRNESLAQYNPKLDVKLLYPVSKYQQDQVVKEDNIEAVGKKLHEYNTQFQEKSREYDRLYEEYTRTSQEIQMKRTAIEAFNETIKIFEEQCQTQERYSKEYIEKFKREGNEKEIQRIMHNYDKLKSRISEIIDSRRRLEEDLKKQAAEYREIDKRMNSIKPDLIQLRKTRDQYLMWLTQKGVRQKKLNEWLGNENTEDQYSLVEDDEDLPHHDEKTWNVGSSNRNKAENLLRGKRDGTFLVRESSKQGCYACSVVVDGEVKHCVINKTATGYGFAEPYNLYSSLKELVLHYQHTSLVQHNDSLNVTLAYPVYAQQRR
How it was run: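 Biotinylated human PI3Kα (baculovirus-expressed, 4.5 nmol/L) pre-incubated 15 min with compound in Tris-HCl pH 7.5, MgCl2, BSA; reaction 60 min at 25° C with 50 μmol/L PIP2 and 100 μmol/L ATP final. ADP quantified by ADP-Glo luminescence; IC50 calculated.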

[2] = 2.5 nmol/L ERK2, ATP 43.1 μmol/L
[3] = 4.5 nmol/L PI3Kα, PIP2 50 μmol/L, ATP 100 μmol/L

T1 sequence (P28482 whole entry, the tested form may be a part): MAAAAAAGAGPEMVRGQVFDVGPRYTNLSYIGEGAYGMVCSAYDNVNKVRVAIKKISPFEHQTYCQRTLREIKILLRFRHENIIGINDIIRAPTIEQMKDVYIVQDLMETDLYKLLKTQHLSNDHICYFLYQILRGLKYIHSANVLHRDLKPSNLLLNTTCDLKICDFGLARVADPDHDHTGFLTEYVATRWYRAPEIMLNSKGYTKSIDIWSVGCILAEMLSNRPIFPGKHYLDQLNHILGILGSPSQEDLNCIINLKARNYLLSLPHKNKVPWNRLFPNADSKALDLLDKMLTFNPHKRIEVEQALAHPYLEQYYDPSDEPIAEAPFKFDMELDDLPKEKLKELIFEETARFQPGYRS

IC50 [1, 2]	IC50 ([1]; ERK2 enzyme assay (1))	SMILES	also measured
< 1000 nM		CN1CCN(CCCn2cc(-c3cnc4ccc(Nc5nnc(C6CCCC6)s5)nc4c3)cn2)CC1 [Example 0197, 5-cyclopentyl-N-(7-(1-(3-(4-methylpiperazin-1-yl)propyl)-1H-pyrazol-4-yl)-1,5-naphthyridin-2-yl)-1,3,4-thiadiazole-2-amine]	IC50 (human PI3Kα protein; [3]): < 1000 nM
< 1000 nM		CC(C)c1nnc(Nc2ccc3ncc(-c4cn(C)nc4-c4ccccn4)cc3n2)s1 [Example 0136, 5-isopropyl-N-(7-(1-methyl-3-(pyridin-2-yl)-1H-pyrazol-4-yl)-1,5-naphthyridin-2-yl)-1,3,4-thiadiazole-2-amine]	IC50 (human PI3Kα protein; [3]): < 1000 nM
< 1000 nM		CCc1cnnc(Nc2ccc3ncc(-c4cnn(CCCN5CCOCC5)c4)cc3n2)c1 [Example 0178, N-(5-ethylpyridazin-3-yl)-7-(1-(3-morpholinopropyl)-1H-pyrazol-4-yl)-1,5-naphthyridine-2-amine]	IC50 (human PI3Kα protein; [3]): < 1000 nM
	< 1000 nM	CC(C)c1cnnc(Nc2ccc3ncc(-c4cn(C)nc4CO)cc3n2)c1 [Example 0394, (4-(6-((5-isopropylpyridazin-3-yl)amino)-1,5-naphthyridin-3-yl)-1-methyl-1H-pyrazol-3-yl)methanol]	IC50 (human PI3Kα protein): < 1000 nM
	1000 to 10000 nM	CC(C)c1nnc(Nc2ccc3nccc(-c4ccccn4)c3n2)s1 [Example 0281, 5-isopropyl-N-(8-(pyridin-2-yl)-1,5-naphthyridin-2-yl)-1,3,4-thiadiazole-2-amine]	IC50 (human PI3Kα protein): 1000 to 10000 nM
	< 1000 nM	OCCNc1cnc2ccc(Nc3nnc(C4CCCC4)s3)nc2c1 [Example 0310]	IC50 (human PI3Kα protein): 1000 to 10000 nM
	< 1000 nM	COC1CCCN(CCCn2cc(-c3cnc4ccc(Nc5cc(C(C)C)cnn5)nc4c3)cn2)C1 (stereo not shown) [Example 0378, N-(5-isopropylpyridazin-3-yl)-7-(1-(3-(3-methoxypiperidin-1-yl)propyl)-1H-pyrazol-4-yl)-1,5-naphthyridine-2-amine]	IC50 (human PI3Kα protein): < 1000 nM
	< 1000 nM	CC(C)c1cnnc(Nc2ccc3ncc(-c4ccccc4)cc3n2)c1 [Example 0408]	
< 1000 nM		Cn1cc(-c2cnc3ccc(Nc4nnc(S(N)(=O)=O)s4)nc3c2)cn1 [Example 0191, ((5-((7-(1-methyl-1H-pyrazol-4-yl)-1,5-naphthyridin-2-yl)amino)-1,3,4-thiadiazol-2-yl)sulfonyl)amide sodium salt]	IC50 (human PI3Kα protein; [3]): < 1000 nM
	< 1000 nM	CC(C)c1cnnc(Nc2ccc3ncc(-c4cnn(-c5ccncc5)c4)cc3n2)c1 [Example 0399, N-(5-isopropylpyridazin-3-yl)-7-(1-(pyridin-4-yl)-1H-pyrazol-4-yl)-1,5-naphthyridine-2-amine]	IC50 (human PI3Kα protein): 1000 to 10000 nM
	< 1000 nM	CC(C)c1cnnc(Nc2ccc3ncc(-c4cccnc4)cc3n2)c1 [Example 0407]	IC50 (human PI3Kα protein): 1000 to 10000 nM
< 1000 nM		Clc1cc(Nc2cnc3ccc(Nc4nnc(C5CCCC5)s4)nc3c2)cnc1-n1cccn1 [Example 0078]	IC50 (human PI3Kα protein; [3]): < 1000 nM
	< 1000 nM	CC(=O)N1CCC(c2cnc3ccc(Nc4nnc(C5CCCC5)s4)nc3c2)CC1 [Example 0335, 1-(4-(6-((5-Cyclopentyl-1,3,4-thiadiazol-2-yl)amino)-1,5-naphthyridin-3-yl)piperidin-1-yl)ethanone]	IC50 (human PI3Kα protein): 10000 to 50000 nM
< 1000 nM		CS(=O)(=O)N1CCC(Nc2cnc3ccc(Nc4nnc(C5CCCC5)s4)nc3c2)CC1 [Example 0098]	IC50 (human PI3Kα protein; [3]): < 1000 nM
	< 1000 nM	CC(C)c1cnnc(Nc2ccc3ncc(-c4cnn(Cc5ccccn5)c4)cc3n2)c1 [Example 0375, N-(5-isopropylpyridazin-3-yl)-7-(1-(pyridin-2-ylmethyl)-1H-pyrazol-4-yl)-1,5-naphthyridine-2-amine]	IC50 (human PI3Kα protein): < 1000 nM
< 1000 nM		c1nnc(Nc2ccc3ncc(Nc4cn[nH]c4)cc3n2)s1 [Example 0186, N^7-(1H-pyrazol-4-yl)-N^2-(1,3,4-thiadiazol-2-yl)-1,5-naphthyridine-2,7-diamine]	IC50 (human PI3Kα protein; [3]): < 1000 nM
1000 to 10000 nM		FC(F)(F)CN1CCN(c2cnc3ccc(Nc4nnc(C5CCCC5)s4)nc3c2)CC1 [Example 0049]	
1000 to 10000 nM		Cc1nnc(Nc2ccc3ncc(-c4cnn(C)c4)cc3n2)o1 [Example 0031, 5-methyl-N-(7-(1-methyl-1H-pyrazol-4-yl)-1,5-naphthyridin-2-yl)-1,3,4-oxadiazole-2-amine hydrochloride]	
	1000 to 10000 nM	CC(C)(C)OC(=O)N1CCC(c2cnc3ccc(Nc4nnc(C5CCCC5)s4)nc3c2)CC1 [Example 0331, tert-butyl 4-(6-((5-cyclopentyl-1,3,4-thiadiazol-2-yl)amino)-1,5-naphthyridin-3-yl)piperidine-1-carboxylate]	
	< 1000 nM	COc1cc(-c2cnc3ccc(Nc4nnc(C5CCCC5)s4)nc3c2)cc(OC)c1OC [Example 0204]	

IC50 [1, 2]	IC50 ([1]; ERK2 enzyme assay (1))	SMILES	also measured
	< 1000 nM	COc1cccc(-c2cnc3ccc(Nc4nnc(C5CCCC5)s4)nc3c2)c1 [Example 0212]	
10000 to 50000 nM		C#Cc1cnc2ccc(Nc3nnc(C4CCCC4)s3)nc2c1 [Example 0042, 5-cyclopentyl-N-(7-ethynyl-1,5-naphthyridin-2-yl)-1,3,4-thiadiazole-2-amine hydrochloride]	
1000 to 10000 nM		c1cncc(Oc2cnc3ccc(Nc4nnc(C5CCCC5)s4)nc3c2)c1 [Example 0044, 5-cyclopentyl-N-(7-((pyridin-3-yl)oxy)-1,5-naphthyridin-2-yl)-1,3,4-thiadiazole-2-amine hydrochloride]	
	< 1000 nM	COc1ccc(-c2cnc3ccc(Nc4nnc(C5CCCC5)s4)nc3c2)cc1 [Example 0213]	
	< 1000 nM	Cc1noc(C)c1-c1cnc2ccc(Nc3nnc(C4CCCC4)s3)nc2c1 [Example 0216]	
	< 1000 nM	FC(F)(F)CN1CCC(n2cc(-c3cnc4ccc(Nc5nnc(C6CCCC6)s5)nc4c3)cn2)CC1 [Example 0340, 5-cyclopentyl-N-(7-(1-(1-(2,2,2-trifluoroethyl)piperidin-4-yl)-1H-pyrazol-4-yl)-1,5-naphthyridin-2-yl)-1,3,4-thiadiazole-2-amine]	
< 1000 nM		c1cn(-c2cc(Nc3cnc4ccc(Nc5nnc(C6CCCC6)s5)nc4c3)ccn2)nn1 [Example 0080]	
< 1000 nM		Cn1cc(-c2cnc3ccc(Nc4nnc(C5CCC5)s4)nc3c2)cn1 [Example 0198, 5-Cyclobutyl-N-(7-(1-methyl-1H-pyrazol-4-yl)-1,5-naphthyridin-2-yl)-1,3,4-thiadiazole-2-amine]	
	< 1000 nM	COc1ccc(-c2cnc3ccc(Nc4nnc(C5CCCC5)s4)nc3c2)cc1OC [Example 0203]	
	< 1000 nM	CCOC(=O)c1nnc(Nc2ccc3ncc(-c4cnn(C)c4)cc3n2)s1 [Example 0230]	
< 1000 nM		Cn1cc(-c2cnc3ccc(Nc4nnc(C(N)=O)s4)nc3c2)cn1 [Example 0168, 5-((7-(1-Methyl-1H-pyrazol-4-yl)-1,5-naphthyridin-2-yl)amino)-1,3,4-thiadiazole-2-carboxamide]	
< 1000 nM		Cn1cc(-c2cnc3ccc(Nc4nnc(C(F)(F)F)s4)nc3c2)cn1 [Example 0164]	
< 1000 nM		Brc1cnc2ccc(Nc3nnc(C4CCCC4)s3)nc2c1 [Example 0039, N-(7-bromo-1,5-naphthyridin-2-yl)-5-cyclopentyl-1,3,4-thiadiazole-2-amine]	
	< 1000 nM	c1ccc(-c2cnc3ccc(Nc4nnc(C5CCCC5)s4)nc3c2)cc1 [Example 0218, 5-Cyclopentyl-N-(7-phenyl-1,5-naphthyridin-2-yl)-1,3,4-thiadiazole-2-amine]	
	< 1000 nM	CC(C)(C)OC(=O)N1CC=C(c2cnc3ccc(Nc4nnc(C5CCCC5)s4)nc3c2)CC1 [Example 0328, tert-butyl 4-(6-((5-cyclopentyl-1,3,4-thiadiazol-2-yl)amino)-1,5-naphthyridin-3-yl)-5,6-dihydropyridine-1(2H)-carboxylate]	
< 1000 nM		Cn1cc(-c2cnc3ccc(Nc4nnc(-c5ccccc5)s4)nc3c2)cn1 [Example 0028]	
< 1000 nM		CSc1nnc(Nc2ccc3ncc(-c4cnn(C)c4)cc3n2)s1 [Example 0174, N-(7-(1-methyl-1H-pyrazol-4-yl)-1,5-naphthyridin-2-yl)-5-(methylthio)-1,3,4-thiadiazole-2-amine]	
	< 1000 nM	COc1ccccc1-c1cnc2ccc(Nc3nnc(C4CCCC4)s3)nc2c1 [Example 0211]	
1000 to 10000 nM		COc1ccc(Nc2ccc3ncc(-c4cnn(C)c4)cc3n2)nn1 [Example 0149]	
	< 1000 nM	COc1cccc(-c2ccnc3ccc(Nc4nnc(C(C)C)s4)nc23)c1 [Example 0271]	
